Measured values: patent US4448783A, “Substituted pyrazoline, and its use in treatment of gastro-intestinal disturbances” (Burroughs Wellcome Co., priority 1982, dated 1984)

Tested on: response of the rabbit colon in vitro to bradykinin
Assay: Inhibition of the bradykinin response of rabbit colon mucosa in vitro (transepithelial potential difference and short circuit current, Ussing chambers)
Assay type: cell-based, New Zealand white male rabbits
Details: Oryctolagus cuniculus, 0.5 h, incubated 30 min prior to bradykinin (1×10^-6 M), read-out: ED50 (the source's name)
Description: Measurement of transepithelial potential difference (PD) and short circuit current (Isc)
New Zealand white male rabbits (2-3 kg) were fed standard rabbit chow and water ad lib. Rabbits were killed by cervical dislocation, and the distal colon or ileum removed rapidly, opened along its mesenteric border, and rinsed clean of luminal contents with cold Ringer's solution containing, in mmol/liter NaCl, 114; KCl, 5; NaH2 PO4, 0.3; CaCl2, 1.25; MgCl2, 1.1; and NaHCO3, 25 (standard Ringer). Before use, tissues were maintained in ice-cold Ringer with 95% O2 /5% CO2. The standard ringer solution also contained captopril (5×10^-6 M) to inhibit bradykinin metabolism.
The serosa and two muscle layers were removed by placing a 10 cm strip of ileum, serosa up, on a Lucite plate, making a transverse cut through both external muscle layers with a razor blade, and stripping off the layers longitudinally.
Transepithelial electrical potential difference (PD), total conductance (Gt), and short circuit current (Isc) were measured as described by M. Field et al (A M J. Physiol, 220 1388-1396). Six pieces of mucosa were mounted in Ussing chambers (1.12 cm^2 cross-sectional area), and bathed with 8 ml of standard Ringer on each side. Solutions were circulated by gas lift and maintained at 37° C. in water jacketed reservoirs. […]

Row | IC50 | Structure (SMILES)
1 | 200 µM | NC1=NN(c2cccc(C(F)(F)F)c2)CC1 [R^1 H, 3-amino-1-(3-trifluoromethylphenyl)-2-pyrazoline]
2 | 50 µM | CNC1=NN(c2cccc(C(F)(F)F)c2)CC1 [R^1 CH3, 3-methylamino-1-(3-trifluoromethylphenyl)-2-pyrazoline]
